Our source for the relative viability values is the supplement of paper PMC10307832.

Assay in all cases: relative viability (nuclei count vs DMSO), 5 days (fraction); higher = more cells survive
Compound in experiment [1]: C(C(=O)C(=O)O)Br [Bromopyruvate] + C[C@@H](Oc1cc(-c2cnn(C3CCNCC3)c2)cnc1N)c1c(Cl)ccc(F)c1Cl [Crizotinib] (partner 1 µM)
Put shortly: (§1)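 For relative viability, nuclei counts in treated wells were divided by those in vehicle wells. Lung cancer cell lines had been pin-tool dosed in 1536-well plates the day after seeding and cultured for 5 days, then fixed and stained in one step (final 0.05% Triton X-100, 1% formaldehyde, 1 ug/ml Hoechst) and imaged at 4×. Doses were one drug alone or a fixed anchor-drug dose plus five library-drug doses (not always all listed) in √10 steps, and values are duplicate-plate medians.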

Compound in experiment [2]: C(C(=O)C(=O)O)Br [Bromopyruvate] + Nc1nc2[nH]cc(CCc3ccc(C(=O)N[C@@H](CCC(=O)O)C(=O)O)cc3)c2c(=O)[nH]1 [Pemetrexed] (partner 0.2 µM)
Put shortly: as §1

Compound in the experiment “Bicalutamide + Alpelisib”: CC(O)(CS(=O)(=O)c1ccc(F)cc1)C(=O)Nc1ccc(C#N)c(C(F)(F)F)c1 [Bicalutamide] + Cc1nc(NC(=O)N2CCC[C@H]2C(N)=O)sc1-c1ccnc(C(C)(C)C(F)(F)F)c1 [Alpelisib] (partner 2 µM)
Put shortly:
as §1

Compound in experiment [3]: CC(O)(CS(=O)(=O)c1ccc(F)cc1)C(=O)Nc1ccc(C#N)c(C(F)(F)F)c1 [Bicalutamide] + O=C(CCCCCCC(=O)Nc1ccccc1)NO [Vorinostat] (partner 1 µM)
Put shortly: as §1

For the cell line UMC-11, the relative viability in experiment [1] (first compound 1 µM) is 0.727; in experiment [1] (first compound 3.162 µM), 0.655; in experiment [1] (first compound 10 µM) it was 0.505; in experiment [1] (first compound 31.62 µM) it was 0.509; in experiment [1] (first compound 100 µM), 0.52; in experiment [2] (first compound 1 µM), 0.801. The relative viability is 0.841 in experiment [2] (first compound 3.162 µM); 0.777 in experiment [2] (first compound 10 µM); 0.708 in experiment [2] (first compound 31.62 µM); 0.736 in experiment [2] (first compound 100 µM); 1.05 in the experiment with Bicalutamide + Alpelisib (first compound 0.08 µM); 0.9 in the experiment with Bicalutamide + Alpelisib (first compound 0.253 µM). Moreover, the relative viability is 1.12 with Bicalutamide + Alpelisib (first compound 0.8 µM); 0.976 in the experiment with Bicalutamide + Alpelisib (first compound 2.53 µM); 0.436 in experiment [3] (first compound 0.08 µM); 0.387 in experiment [3] (first compound 0.253 µM); 0.403 in experiment [3] (first compound 0.8 µM); 0.264 in experiment [3] (first compound 2.53 µM).
